Legend:
[1] = target: T1, human MR (Homo sapiens, UniProt P08235); test: Mineralocorticoid Receptor Binding Assay ([3H]-aldosterone displacement); settings: full length human MR expressed in Sf9 cells, 0.5 nM [3H]-aldosterone
T1 construct: The full length human MR gene is cloned from a human kidney or human brain cDNA library; made in house; host or cells: Sf9 insect cells (baculovirus, pAcHLT transfer vector)
T1 sequence (P08235 1-984): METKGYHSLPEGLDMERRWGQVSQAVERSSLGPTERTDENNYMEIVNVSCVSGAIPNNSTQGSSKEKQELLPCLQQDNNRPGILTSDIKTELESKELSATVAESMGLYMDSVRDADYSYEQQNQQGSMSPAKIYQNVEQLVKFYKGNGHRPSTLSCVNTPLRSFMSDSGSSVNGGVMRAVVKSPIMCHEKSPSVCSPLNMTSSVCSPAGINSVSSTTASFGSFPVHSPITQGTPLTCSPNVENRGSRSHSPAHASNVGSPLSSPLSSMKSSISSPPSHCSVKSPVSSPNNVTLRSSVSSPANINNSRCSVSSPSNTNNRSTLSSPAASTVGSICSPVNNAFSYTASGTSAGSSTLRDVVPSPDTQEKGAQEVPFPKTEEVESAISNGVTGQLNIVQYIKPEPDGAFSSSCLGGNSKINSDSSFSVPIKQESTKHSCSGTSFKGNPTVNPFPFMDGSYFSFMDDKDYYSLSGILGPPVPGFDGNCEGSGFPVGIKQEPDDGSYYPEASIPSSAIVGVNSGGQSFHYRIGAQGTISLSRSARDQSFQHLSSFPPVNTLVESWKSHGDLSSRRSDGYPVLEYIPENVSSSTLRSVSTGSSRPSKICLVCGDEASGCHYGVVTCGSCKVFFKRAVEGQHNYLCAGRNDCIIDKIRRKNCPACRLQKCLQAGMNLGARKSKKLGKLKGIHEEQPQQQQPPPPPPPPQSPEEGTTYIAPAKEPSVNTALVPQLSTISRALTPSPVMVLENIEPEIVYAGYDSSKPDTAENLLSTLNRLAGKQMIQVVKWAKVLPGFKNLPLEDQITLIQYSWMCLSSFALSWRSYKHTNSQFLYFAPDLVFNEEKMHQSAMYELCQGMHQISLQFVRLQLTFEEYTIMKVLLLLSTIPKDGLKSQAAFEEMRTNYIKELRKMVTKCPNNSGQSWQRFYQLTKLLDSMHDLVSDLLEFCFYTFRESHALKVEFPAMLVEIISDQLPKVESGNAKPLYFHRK
Description: Mineralocorticoid Receptor Binding Assay:
The full length human MR gene is cloned from a human kidney or human brain cDNA library. Briefly, using synthetic oligonucleotide primers (Eli Lilly and Company, Indianapolis) directed to nucleotides 20-54 and 3700-3666 of the human MR, polymerase chain reaction (PCR) is performed under standard conditions using a human cDNA library. The PCR reaction is performed in a final volume of 50 μl containing about 1 μl of a 50× stock solution of polymerase; about 1 μl of a 50× stock solution of dNTP; about 5 μl of an appropriate PCR buffer; about 1 μl of each primer; about 5 μl of a H. kidney or H. brain cDNA library; and about 36 μl of water. The reaction is allowed to denature for about 30 seconds at 95 degrees Celsius, anneal for about 30 seconds at 55 degrees Celsius, and extend for about 5 minutes at 72 degrees Celsius, the sequence being repeated for a total of about 35 cycles. The desired PCR product (3.68 Kb) is confirmed by gel electrophoresis and subsequently cut from the gel and stored at about −20 degrees Celsius until extraction. To extract the cDNA product from the agarose gel, the QIAEX II Gel Extraction protocol (QIAGEN, Inc.) is employed according to the manufacturer's instructions. Following extraction, the MR cDNA is cloned into an appropriate cloning vector (Zero Blunt TOPO PCR Cloning Kit (Invitrogen, Inc.) and a pAcHLT-baculovirus transfer vector (B.D./Pharminogen), then expressed in SF9 insect cells, essentially according to manufacturer's instructions. Sf9 cells are grown at a scale where gram quantity cell pellets are obtained for subsequent use in the MR binding assay. Harvested cell pellets are lysed by repeated freeze-thaw cycles (about 4) in a suitable lysis buffer then centrifuged at about 1×10^3 G (with the supernatant being saved for future assays).
MR binding assays are performed in a final total volume of about 250 μl containing about 20-25 μg of protein and 0.5 nM of [^3H]-aldosterone plus varying concentrations of test compound or vehicle. The assay binding buffer consists of 30 mM sodium molybdate, 30 mM of TRIS-HCl, 5 mM sodium phosphate, 5 mM sodium pyrophosphate, and about 10% glycerol, pH=7.5.
Briefly, assays are prepared at RT in 96-well Falcon 3072 plates, each well containing 210 μl of binding buffer, 10 μl of [^3H]-aldosterone, 10 μl of test compound/vehicle, and 20 μl of the resuspended receptor protein extract. Incubations are carried out at 4 degrees Celsius with shaking for about 16 hours. 200 μl aliquots of each incubation are filtered onto Millipore HA 0.45 micron 96-well filter plates, pre-moistened with cold 30 mM TRIS-HCl. The filter plates are suctioned dry with vacuum and immediately washed 3× with cold 30 mM TRIS-HCl. The plates are then punched out and the amount of receptor-ligand complex is determined by liquid scintillation counting using 4 ml of Ready Protein Plus™ liquid scintillation cocktail.
IC50 values (defined as the concentration of test compound required to decrease [^3H]-aldosterone binding by 50%) are then determined. Ki values for each respective test compound can then be calculated by application of the Cheng-Prusoff equation as described in Cheng et al., Relationship Between The Inhibition Constant (Ki) and The Concentration of Inhibitor Which Causes 50% Inhibition (IC50) of an Enzymatic Reaction, Biochem. Pharmacol., 22: 3099-31088; (1973).

[2] = in combination with standard CHF therapy, patients suffering from advanced CHF; cited from earlier work

Ki [1] [nM]	SMILES	reduced cardiac related mortality [2] [%]	reduced frequency of hospitalization [2] [%]
≤ 500	Cc1cc(C2(c3cc(C)c(O)c(C)c3)C(=O)N(Cc3cccnc3)c3ccccc32)cc(C)c1O [Example 103, 3,3-Bis-(4-hydroxy-3,5-dimethyl-phenyl)-1-pyridin-3-ylmethyl-1,3-dihydro-indol-2-one]		
≤ 500	Cc1cc(C2(c3cc(C)c(O)c(C)c3)C(=O)N(CCc3ccccn3)c3ccccc32)cc(C)c1O [Example 122, 3,3-Bis-(4-hydroxy-3,5-dimethyl-phenyl)-1-(2-pyridin-2-yl-ethyl)-1,3-dihydro-indol-2-one]		
≤ 500	Cc1cc(C2(c3cc(C)c(O)c(C)c3)C(=O)N(Cc3ccc(C(=O)c4ccccc4)cc3)c3ccccc32)cc(C)c1O [Example 71, 1-(4-Benzoyl-benzyl)-3,3-bis-(4-hydroxy-3,5-dimethyl-phenyl)-1,3-dihydro-indol-2-one]		
≤ 500	Cc1cc(C2(c3cc(C)c(O)c(C)c3)C(=O)N(Cc3ccc4ccccc4c3)c3ccccc32)cc(C)c1O [Example 59, 3,3-Bis-(4-hydroxy-3,5-dimethyl-phenyl)-1-naphthalen-2-ylmethyl-1,3-dihydro-indol-2-one]		

The next lines start with the compound.

SMILES	Ki [1] [nM]	reduced cardiac related mortality [2] [%]	reduced frequency of hospitalization [2] [%]
CC(=O)S[C@@H]1CC2=CC(=O)CC[C@]2(C)[C@H]2CC[C@@]3(C)[C@@H](CC[C@@]34CCC(=O)O4)[C@H]12 [spironolactone]		30	35
C=CCN1C(=O)C(c2cc(C)c(O)c(C)c2)(c2cc(C)c(O)c(C)c2)c2ccccc21 [Example 104, 1-Allyl-3,3-bis-(4-hydroxy-3,5-dimethyl-phenyl)-1,3-dihydro-indol-2-one]	≤ 500		
Cc1cc(C2(c3cc(C)c(O)c(C)c3)C(=O)N(CC(=O)NC3CCCCC3)c3ccccc32)cc(C)c1O [Example 96, 2-[3,3-Bis-(4-hydroxy-3,5-dimethyl-phenyl)-2-oxo-2,3-dihydro-indol-1-yl]-N-cyclohexyl-acetamide]	≤ 500		
